Results: patent publication US10966426B2, “Herbicidal compositions comprising phenylpyrimidines” (BASF SE, priority 2016, dated 2021)

What was measured:
Format in all cases: in vivo
[1] = tested on: Setaria viridis; experiment: greenhouse post-emergence treatment, SETVI; conditions: Setaria viridis, 480 h, 20 DAT; for inhibition at 500000 µg/mL (stock): sc
Procedure, shortened: (§1)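 Seeds sown per species in loamy sand substrate (about 3.0% humus); some raised separately and transplanted shortly before treatment. Treatments applied in water post-emergence, plants held at 10-25° C. or 20-35° C. by species, then scored after 2 to 4 weeks, where 100 means total kill and 0 no damage.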

[2] = tested on: Matricaria chamomilla; experiment: greenhouse post-emergence treatment, MATCH; conditions: Matricaria chamomilla, 480 h, 20 DAT, MATCH; for inhibition at 500000 µg/mL (stock): sc
Procedure, shortened: (§2)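 Seeds sown per species in pots of loamy sand; seedlings either grown in place or transplanted days before treatment. Post-emergence spray of water-based liquor at 3–15 cm height. Injury rated 0–100 over 2 to 4 weeks.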

[3] = tested on: Polygonum convolvulus; experiment: greenhouse post-emergence treatment, POLCO; conditions: Fallopia convolvulus, 480 h, 20 DAT; for inhibition at 500000 µg/mL (stock): sc
Procedure, shortened: as §2

[4] = tested on: Bromus sterilis; experiment: greenhouse post-emergence treatment, BROST; conditions: Bromus sterilis, 480 h, 20 DAT; for inhibition at 500000 µg/mL (stock): sc
Procedure, shortened: as §1

[5] = tested on: Lolium multiflorum; experiment: greenhouse post-emergence treatment, LOLMU; conditions: Lolium multiflorum, 480 h, 20 DAT
Procedure, shortened: as §1

[6] = tested on: Avena fatua; experiment: greenhouse pre-emergence treatment, AVEFA; conditions: Avena fatua, 480 h, 20 DAT, AVEFA
Procedure, shortened: (§3)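 Seeds were sown per species in pots of loamy sand with about 3.0% humus, sprayed with the aqueous spray liquor directly after sowing, watered and hooded until rooted, then kept at 10-25° C. or 20-35° C. for 2 to 4 weeks. Damage was scored 0 (none) to 100 (no emergence/complete destruction).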

[7] = tested on: Ambrosia elatior; experiment: greenhouse pre-emergence treatment, AMBEL; conditions: Ambrosia artemisiifolia, 480 h, 20 DAT, AMBEL
Procedure, shortened: as §3

[8] = tested on: Brachiaria decumbens; experiment: greenhouse post-emergence treatment, BRADC; conditions: Urochloa decumbens, 480 h, 20 DAT; for inhibition at 500000 µg/mL (stock): sc
Procedure, shortened: (§4)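 Visual herbicidal effect (0–100) recorded over a 2 to 4 week test period after foliar treatment at plant heights of 3 to 15 cm. Expected combination effects derived by the Colby formula from single-component effects X and Y.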

[9] = tested on: Papaver rhoeas; experiment: greenhouse post-emergence treatment, PAPRH; conditions: Papaver rhoeas, 480 h, PAPRH, 20 DAT
Procedure, shortened: as §2

[10] = tested on: Ambrosia elatior; experiment: greenhouse post-emergence treatment, AMBEL; conditions: 20 DAT; for % activity: solo, WG 70%
Procedure, shortened: as §4

[11] = tested on: Avena fatua; experiment: greenhouse post-emergence treatment, AVEFA; conditions: Avena fatua, 480 h, 20 DAT
Procedure, shortened: as §1

[12] = tested on: Poa annua; experiment: greenhouse post-emergence treatment, POAAN; conditions: Poa annua, 480 h, 20 DAT
Procedure, shortened: as §4

[13] = flufenacet solo 31.25 gai/ha, read-out: % activity
[14] = flufenacet solo 125 gai/ha, read-out: % activity
[15] = flufenacet SC 500 g/l solo 62.5 gai/ha, read-out: % activity

Compound: CSc1nnc(C(C)(C)C)c(=O)n1N [metribuzin]
- pest or weed control at 17.5 g/ha ([1]; solo, WG 70%, SETVI, 17.5 gai/ha): 30%
- inhibition at 17.5 g/ha ([2]; metribuzin WG 70% solo 17.5 gai/ha): 0%
- inhibition at 35 g/ha ([2]; metribuzin WG 70% solo 35 gai/ha): 25%
- pest or weed control at 17.5 g/ha ([2]; solo, WG 70%, 17.5 gai/ha): 0%
- pest or weed control at 35 g/ha ([2]; solo, WG 70%, 35 gai/ha): 25%
- inhibition at 17.5 g/ha ([3]; POLCO, metribuzin WG 70% solo 17.5 gai/ha): 0%
- inhibition at 35 g/ha ([3]; POLCO, metribuzin WG 70% solo 35 gai/ha): 0%
- inhibition at 70 g/ha ([3]; POLCO, metribuzin WG 70% solo 70 gai/ha): 60%
- inhibition at 140 g/ha ([3]; POLCO, metribuzin WG 70% solo 140 gai/ha): 70%
- pest or weed control at 17.5 g/ha ([4]; solo, WG 70%, BROST, 17.5 gai/ha): 25%
- pest or weed control at 35 g/ha ([4]; solo, WG 70%, BROST, 35 gai/ha): 55%
- pest or weed control at 17.5 g/ha ([5]; solo, WG 70%, LOLMU, 17.5 gai/ha): 20%
- pest or weed control at 35 g/ha ([5]; solo, WG 70%, LOLMU, 35 gai/ha): 60%
- pest or weed control at 70 g/ha ([5]; solo, WG 70%, LOLMU, 70 gai/ha): 65%
- inhibition at 31.25 g/ha ([6]; metribuzin WG 70% solo 31.25 gai/ha): 30%
- percent weed control (herbicidal activity, 0-100 scale) at 250 g/ha ([7]; metribuzin WG 70% solo 250 gai/ha): 60%
- pest or weed control at 31.25 g/ha ([7]; solo, WG 70%, 31.25 gai/ha): 40%
- pest or weed control at 62.5 g/ha ([7]; solo, WG 70%, 62.5 gai/ha): 40%
- pest or weed control at 125 g/ha ([7]; solo, WG 70%, 125 gai/ha): 70%
- inhibition at 17.5 g/ha ([8]; BRADC, metribuzin WG 70% solo 17.5 gai/ha): 50%
- pest or weed control at 17.5 g/ha ([9]; solo, WG 70%, 17.5 gai/ha): 60%
- inhibition at 17.5 g/ha ([10]; Ambrosia artemisiifolia, 480 h, AMBEL, metribuzin WG 70% solo 17.5 gai/ha): 0%
- inhibition at 35 g/ha ([10]; Ambrosia artemisiifolia, 480 h, AMBEL, metribuzin WG 70% solo 35 gai/ha): 0%
- inhibition at 70 g/ha ([10]; Ambrosia artemisiifolia, 480 h, AMBEL, metribuzin WG 70% solo 70 gai/ha): 0%
- inhibition at 140 g/ha ([10]; Ambrosia artemisiifolia, 480 h, AMBEL, metribuzin WG 70% solo 140 gai/ha): 70%
- % activity ([10]; AMBEL, 17.5 gai/ha): 0%
- % activity ([10]; AMBEL, 35 gai/ha): 0%
- % activity ([10]; AMBEL, 70 gai/ha): 0%
- inhibition at 17.5 g/ha ([11]; AVEFA, metribuzin WG 70% solo 17.5 gai/ha): 5%
- inhibition at 35 g/ha ([11]; AVEFA, metribuzin WG 70% solo 35 gai/ha): 10%
- inhibition at 70 g/ha ([11]; AVEFA, metribuzin WG 70% solo 70 gai/ha): 40%
- pest or weed control at 17.5 g/ha ([11]; solo, WG 70%, AVEFA, 17.5 gai/ha): 5%
- pest or weed control at 35 g/ha ([11]; solo, WG 70%, AVEFA, 35 gai/ha): 10%
- pest or weed control at 70 g/ha ([11]; solo, WG 70%, AVEFA, 70 gai/ha): 40%
- inhibition at 17.5 g/ha ([12]; POAAN, metribuzin WG 70% solo 17.5 gai/ha): 60%
- inhibition at 35 g/ha ([12]; POAAN, metribuzin WG 70% solo 35 gai/ha): 70%
- pest or weed control at 17.5 g/ha ([12]; solo, WG 70%, POAAN, 17.5 gai/ha): 60%

Compound: CC(C)N(C(=O)COc1nnc(C(F)(F)F)s1)c1ccc(F)cc1 [flufenacet]
- inhibition at 62.5 g/ha ([1]; flufenacet solo 62.5 gai/ha): 35%
- inhibition at 125 g/ha ([1]; flufenacet solo 125 gai/ha): 55%
- inhibition at 500000 µg/mL (stock) ([1]; SETVI, solo flufenacet (SC 500 g/l) 62.5 gai/ha): 35%
- inhibition at 500000 µg/mL (stock) ([1]; SETVI, solo flufenacet (SC 500 g/l) 125 gai/ha): 55%
- inhibition at 500000 µg/mL (stock) ([2]; solo flufenacet (SC 500 g/l) 31.25 gai/ha): 0%
- inhibition at 500000 µg/mL (stock) ([2]; solo flufenacet (SC 500 g/l) 62.5 gai/ha): 0%
- inhibition at 500000 µg/mL (stock) ([2]; solo flufenacet (SC 500 g/l) 125 gai/ha): 50%
- inhibition at 31.25 g/ha ([3]; flufenacet solo 31.25 gai/ha): 0%
- inhibition at 62.5 g/ha ([3]; flufenacet solo 62.5 gai/ha): 30%
- inhibition at 125 g/ha ([3]; flufenacet solo 125 gai/ha): 30%
- inhibition at 500000 µg/mL (stock) ([3]; POLCO, solo flufenacet (SC 500 g/l) 31.25 gai/ha): 0%
- inhibition at 500000 µg/mL (stock) ([3]; POLCO, solo flufenacet (SC 500 g/l) 62.5 gai/ha): 30%
- inhibition at 500000 µg/mL (stock) ([3]; POLCO, solo flufenacet (SC 500 g/l) 125 gai/ha): 30%
- inhibition at 500000 µg/mL (stock) ([3]; POLCO, solo flufenacet (SC 500 g/l) 250 gai/ha): 50%
- inhibition at 125 g/ha ([4]; flufenacet solo 125 gai/ha): 65%
- inhibition at 250 g/ha ([4]; flufenacet solo 250 gai/ha): 80%
- inhibition at 500000 µg/mL (stock) ([4]; BROST, solo flufenacet (SC 500 g/l) 125 gai/ha): 65%
- inhibition at 500000 µg/mL (stock) ([4]; BROST, solo flufenacet (SC 500 g/l) 250 gai/ha): 80%
- inhibition at 31.25 g/ha [5, 13]: 20%
- inhibition at 62.5 g/ha ([5]; flufenacet solo 62.5 gai/ha, read-out: % activity): 50%
- inhibition at 125 g/ha [5, 14]: 85%
- inhibition at 250 g/ha ([5]; flufenacet solo 250 gai/ha, read-out: % activity): 85%
- inhibition at 62.5 g/ha [6, 15]: 60%
- percent weed control (herbicidal activity, 0-100 scale) at 31.25 g/ha ([7]; flufenacet SC 500 g/l solo 31.25 gai/ha): 0%
- percent weed control (herbicidal activity, 0-100 scale) at 62.5 g/ha [7, 15]: 0%
- percent weed control (herbicidal activity, 0-100 scale) at 125 g/ha ([7]; flufenacet SC 500 g/l solo 125 gai/ha, read-out: % activity): 0%
- inhibition at 31.25 g/ha ([8]; flufenacet solo 31.25 gai/ha): 0%
- inhibition at 62.5 g/ha ([8]; flufenacet solo 62.5 gai/ha): 0%
- inhibition at 125 g/ha ([8]; flufenacet solo 125 gai/ha): 0%
- inhibition at 250 g/ha ([8]; flufenacet solo 250 gai/ha): 35%
- inhibition at 500000 µg/mL (stock) ([8]; BRADC, solo flufenacet (SC 500 g/l) 31.25 gai/ha): 0%
- inhibition at 500000 µg/mL (stock) ([8]; BRADC, solo flufenacet (SC 500 g/l) 62.5 gai/ha): 0%
- inhibition at 500000 µg/mL (stock) ([8]; BRADC, solo flufenacet (SC 500 g/l) 125 gai/ha): 0%
- inhibition at 500000 µg/mL (stock) ([8]; BRADC, solo flufenacet (SC 500 g/l) 250 gai/ha): 35%
- inhibition at 500000 µg/mL (stock) ([9]; solo flufenacet (SC 500 g/l) 250 gai/ha): 0%
- inhibition at 62.5 g/ha ([10]; Ambrosia artemisiifolia, 480 h, flufenacet solo 62.5 gai/ha): 0%
- inhibition at 125 g/ha ([10]; Ambrosia artemisiifolia, 480 h, flufenacet solo 125 gai/ha): 30%
- inhibition at 250 g/ha ([10]; Ambrosia artemisiifolia, 480 h, flufenacet solo 250 gai/ha): 70%
- inhibition at 31.25 g/ha [11, 13]: 30%
- inhibition at 62.5 g/ha ([11]; flufenacet solo 62.5 gai/ha): 65%
- inhibition at 125 g/ha [11, 14]: 65%
- inhibition at 31.25 g/ha ([12]; flufenacet solo 31.25 gai/ha): 70%
